Assay results: patent publication US4645769A, “1-oxa-1-dethia-cephalosporin compounds and antibacterial agent comprising the same” (Merck & Co., Inc., priority 1985, dated 1987)
In brackets after ≈: the same amount, converted by molar mass. Counter-ions that a name gives are not always drawn.

Legend:
Proteus morganii 1510 = assay: Minimum Inhibitory Concentration (MIC), antibacterial spectrum in vitro; type: cell-based; settings: Proteus morganii 1510; for MIC: Morganella morganii, read-out: Minimum Inhibitory Concentration (MIC)
[1] = system: Pseudomonas aeruginosa E-2; assay: as above; type: cell-based; settings: Pseudomonas aeruginosa E-2; for MIC: E2, read-out: Minimum Inhibitory Concentration (MIC)
[2] = system: Klebsiella pneumoniae PCI 602; assay: as above; type: cell-based; settings: Klebsiella pneumoniae PCI 602; for MIC: PCI602, read-out: Minimum Inhibitory Concentration (MIC)
[3] = system: Streptococcus faecalis ATCC 8043; assay: as above; type: cell-based; settings: Streptococcus faecalis ATCC 8043; for MIC: Enterococcus faecalis, ATCC8043, read-out: Minimum Inhibitory Concentration (MIC)
[4] = system: Esherichia coli NIHJ JC-2; assay: as above; type: cell-based
Pseudomonas aeruginosa = assay: Antibacterial activity against Pseudomonas aeruginosa (from Table 1); type: cell-based; settings: in words
[5] = system: Staphylococcus aureus 209 P JC-1; assay: Minimum Inhibitory Concentration (MIC), antibacterial spectrum in vitro; type: cell-based; settings: Staphylococcus aureus 209 P JC-1; for MIC: 209PJC1, read-out: Minimum Inhibitory Concentration (MIC)
[6] = system: Salmonella typhimurium LT-2; assay: as above; type: cell-based; settings: Salmonella typhimurium LT-2; for MIC: Salmonella enterica, read-out: Minimum Inhibitory Concentration (MIC)
[7] = system: Citrobacter freundii GN-346; assay: as above; type: cell-based; settings: Citrobacter freundii GN-346; for MIC: GN346, read-out: Minimum Inhibitory Concentration (MIC)
[8] = system: Pseudomonas aeruginosa MB-3833; assay: as above; type: cell-based; settings: Pseudomonas aeruginosa MB-3833; for MIC: MB3833, read-out: Minimum Inhibitory Concentration (MIC)
Streptococcus faecalis = assay: Antibacterial activity against Streptococcus faecalis (statement in words); type: cell-based
[9] = Concentration in Blood Serum after subcutaneous dosing (bioassay using Escherichia coli); type: in vivo; settings: mouse, sc, 25 mg/Kg subcutaneously, mice
Method: The concentration of the compound in the serum was determined by bioassay using Escherichia coli as assay microorganism.

| MIC (Proteus morganii 1510) [µg/mL] | MIC [1] [µg/mL] | MIC [2] [µg/mL] | MIC [3] [µg/mL] | MIC [4] [µg/mL] | MIC [5] [µg/mL] | MIC [6] [µg/mL] | MIC [7] [µg/mL] | MIC [8] [µg/mL] | Compound | effectiveness against Pseudomonas aeruginosa (Pseudomonas aeruginosa) | also measured |
| --- | --- | --- | --- | --- | --- | --- | --- | --- | --- | --- | --- |
| 12.5 | > 100 | 0.05 | 50 | 0.05 | 1.56 | 0.1 | > 100 | > 100 | CCN1CCN(C(=O)NC(C(=O)NC2C(=O)N3C(C(=O)[O-])=C(CSc4cc[n+](CC(=O)O)cc4)COC23)c2csc(N)n2)C(=O)C1=O (racemic) [Compound 21, (6R,7R)-7-(DL-2-(2-Aminothiazole-4-yl)-2-(4-ethyl-2,3-dioxopiperazine-1-ylcarboxamide)acetamide)-3-(1-carboxymethylpyridinium-4-yl-thiomethyl)-1-oxa-1-dethiaceph-3-em-4-carboxylate (Sodium Salt)] |  |  |
| 0.2 | 1.56 | 0.05 | 25 | 0.025 | 0.78 | < 0.025 | 1.56 | 1.56 | CC1OC2C(NC(=O)C(=NOC(C)(C)C(=O)O)c3csc(N)n3)C(=O)N2C(C(=O)[O-])=C1CSc1cc[n+](C(CF)CF)cc1 [Compound 17, (6R,7R)-7-((Z)-2-(2-Aminothiazole-4-yl)-2-(2-carboxyprop-2-oxyimino)acetamide)-(2S)-2-methyl-3-(1-(1,3-difluoroprop-2-yl)-pyridinium-4-ylthiomethyl)-1-oxa-1-dethiaceph-3-em-4-carboxylate (Sodium Salt)] |  |  |
| 0.2 | 3.13 | 0.39 | > 100 | 0.78 | 3.13 | 0.1 | 1.56 | 3.13 | CC1OC2C(NC(=O)C(=NOCC(=O)O)c3csc(N)n3)C(=O)N2C(C(=O)[O-])=C1CSc1cc[n+](CCF)cc1 [Compound 19, (6R,7R)-7-((Z)-2-(2-Aminothiazole-4-yl)-2-carboxymethoxyiminoacetamide)-(2S)-2-methyl-3-(1-(2-fluoroethyl)pyridinium-4-ylthiomethyl)-1-oxa-1-dethiaceph-3-em-4-carboxylate (Sodium Salt)] |  |  |
| 6.25 | 25 | 0.2 | > 100 | 0.1 | 0.39 | 0.2 | 25 | 100 | CCN1CCN(C(=O)NC(C(=O)NC2C(=O)N3C(C(=O)[O-])=C(CSc4cc[n+](C)cc4)COC23)c2csc(N)n2)C(=O)C1=O (racemic) [Compound 20, (6R,7R)-7-(DL-2-(2-Aminothiazole-4-yl)-2-(4-ethyl-2,3-dioxopiperazine-1-ylcarboxamide)acetamide)-3-(1-methylpyridinium-4-ylthiomethyl)-1-oxa-1-dethiaceph-3-em-4-carboxylate (Sodium Salt)] |  |  |

Further lines, the molecule ahead of its results:

| Compound | MIC (Proteus morganii 1510) [µg/mL] | MIC [1] [µg/mL] | MIC [2] [µg/mL] | MIC [3] [µg/mL] | MIC [4] [µg/mL] | MIC [5] [µg/mL] | MIC [6] [µg/mL] | MIC [7] [µg/mL] | MIC [8] [µg/mL] | effectiveness against Pseudomonas aeruginosa (Pseudomonas aeruginosa) | also measured |
| --- | --- | --- | --- | --- | --- | --- | --- | --- | --- | --- | --- |
| CC1OC2C(NC(=O)C(=NOC(C)(C)C(=O)O)c3csc(N)n3)C(=O)N2C(C(=O)[O-])=C1CSc1cc[n+](CCF)cc1 [Compound 3, (6R,7R)-7-((Z)-2-(2-Aminothiazole-4-yl)-2-(2-carboxyprop-2-oxyimino)acetamide)-(2S)-2-methyl-3-(1-(2-fluoroethyl)pyridinium-4-ylthiomethyl)-1-oxa-1-dethiaceph-3-em-4-carboxylate (Sodium Salt)] | 0.2 | 1.56 | 0.2 | 25 | 0.2 | 0.78 | < 0.025 | 0.78 | 1.56 | effective against Pseudomonas aeruginosa |  |
| CON=C(C(=O)NC1C(=O)N2C(C(=O)[O-])=C(CSc3cc[n+](CC(=O)O)cc3)COC12)c1csc(N)n1 [Compound 11, (6R,7R)-7-((Z)-2-(2-Aminothiazole-4-yl)-2-methoxyiminoacetamide)-3-(1-carboxymethylpyridinium-4-yl-thiomethyl)-1-oxa-1-dethiaceph-3-em-4-carboxylate (Sodium Salt)] | 6.2 | 50 | 0.025 | 0.78 | < 0.025 | 0.39 | < 0.025 | 12.5 | 25 |  | effectiveness against Streptococcus faecalis (Streptococcus faecalis): effective against Streptococcus faecalis |
| CC(C)(ON=C(C(=O)NC1C(=O)N2C(C(=O)[O-])=C(CSc3cc[n+](CCF)cc3)COC12)c1csc(N)n1)C(=O)O [Compound 15, (6R,7R)-7-((Z)-2-(2-Aminothiazole-4-yl)-2-2-carboxyprop-2-oxyimino)acetamide)-3-((2-fluoroethyl)pyridinium-4-ylthiomethyl)-1-oxa-1-dethiaceph-3-em-4-carboxylate] | 6.25 (≈ 10.3 µM) | 3.13 (≈ 5.14 µM) | 0.1 (≈ 0.164 µM) | 50 (≈ 82.2 µM) | 0.1 (≈ 0.164 µM) | 6.25 (≈ 10.3 µM) | 0.5 (≈ 0.822 µM) | 50 (≈ 82.2 µM) | 3.13 (≈ 5.14 µM) | effective against Pseudomonas aeruginosa |  |
| CC1OC2C(NC(=O)C(=NOCC(=O)O)c3csc(N)n3)C(=O)N2C(C(=O)[O-])=C1CSc1cc[n+](CC(=O)O)cc1 [Compound 9, (6R,7R)-7-((Z)-2-(2-Aminothiazole-4-yl)-2-carboxymethoxyiminoacetamide)-(2S)-2-methyl-3-(1-carboxymethylpyridinium-4-ylthiomethyl)-1-oxa-1-dethiaceph-3-em-4-carboxylate (Sodium Salt)] | 0.78 | 3.13 | 0.1 | 50 | 0.1 | 6.25 | < 0.025 | 12.5 | 3.13 | effective against Pseudomonas aeruginosa | concentration at 0.5 h ([9]; 1/2 hour): 25000 ng/mL; concentration at 0.25 h ([9]; 1/4 hour): 32000 ng/mL; concentration at 5 min ([9]; 1/12 hour): 36000 ng/mL; concentration at 1 h ([9]; 1 hour): 5100 ng/mL |
| C[C@@H]1O[C@@H]2[C@@H](NC(=O)/C(=N\OCC(=O)[O-])c3csc(N)n3)C(=O)N2C(C(=O)[O-])=C1CSc1cc[n+](C)cc1.[Na+] [Compound 18, (6R,7R)-7-((Z)-2-(2-Aminothiazole-4-yl)-2-carboxymethoxyiminoacetamide)-(2S)-2-methyl-3-(1-methylpyridinium-4-ylthiomethyl)-1-oxa-1-dethiaceph-3-em-4-carboxylate (Sodium Salt)] |  |  |  |  |  |  |  |  |  |  | Minimum Inhibitory Concentration (MIC) (Proteus morganii 1510): 0.10 µg/mL; Minimum Inhibitory Concentration (MIC) [1]: 1.56 µg/mL; Minimum Inhibitory Concentration (MIC) [2]: 0.10 µg/mL; Minimum Inhibitory Concentration (MIC) [3]: 25 µg/mL; Minimum Inhibitory Concentration (MIC) [4]: 0.05 µg/mL; Minimum Inhibitory Concentration (MIC) [5]: 0.78 µg/mL; Minimum Inhibitory Concentration (MIC) [6]: < 0.025 µg/mL; Minimum Inhibitory Concentration (MIC) [7]: 1.56 µg/mL; Minimum Inhibitory Concentration (MIC) [8]: 1.56 µg/mL |
| CC1OC2C(NC(=O)C(=NOC(C)(C)C(=O)O)c3csc(N)n3)C(=O)N2C(C(=O)[O-])=C1CSc1cc[n+](CC(=O)O)cc1 [Compound 5, (6R,7R)-7-((Z)-2-(2-Aminothiazole-4-yl)-2-(2-carboxyprop-2-oxyimino)acetamide)-(2S)-2-methyl-3-(1-carboxymethylpyridinium-4-ylthiomethyl-1-oxa-1-dethiaceph-3-em-4-carboxylate (Sodium Salt)] | 1.56 | 6.25 | 0.39 | 50 | 0.39 | 12.5 | 0.1 | 3.13 | 3.13 |  |  |
| CC1OC2C(NC(=O)C(=NOC(C)(C)C(=O)O)c3csc(N)n3)C(=O)N2C(C(=O)[O-])=C1CSc1cc[n+](CC(F)(F)F)cc1 [Compound 4, (6R,7R)-7-((Z)-2-(2-Aminothiazole-4-yl)-2-(2-carboxyprop-2-oxyimino)acetamide)-(2S)-2-methyl-3-(1-(2,2,2-trifluoroethyl)pyridinium-4-ylthionethyl)-1-oxa-1-dethia-3-ceph-4-carboxylate (Sodium Salt)] | 0.2 | 3.13 | 0.39 | 50 | 0.2 | 1.56 | 0.05 | 1.56 | 3.13 | effective against Pseudomonas aeruginosa |  |
| CC[n+]1ccc(SCC2=C(C(=O)[O-])N3C(=O)C(NC(=O)C(=NOC(C)(C)C(=O)O)c4csc(N)n4)C3OC2C)cc1 [Compound 2, (6R,7R)-7-((Z)-2-(2-Aminothiazole-4-yl)-2-(2-carboxyprop-2-oxyimino)acetamide)-(2S)-2-methyl-3-(1-ethyl-pyridinium-4-ylthiomethyl)-1-oxa-1-dethiaceph-3-em-4-carboxylate (Sodium Salt)] | 0.1 | 3.13 | 0.2 | 50 | 0.2 | 0.78 | < 0.025 | 0.78 | 3.13 | effective against Pseudomonas aeruginosa |  |
